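Method: 48-hour compound exposure of cells in 96-well plates, five concentrations, linear interpolation of endpoints. The concentration for 50% growth inhibition is given as GI50.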 The source made the active and inactive calls. Cut-off read from the data, not from the text of the source: active = GI50 up to about 1.1 µM and inactive = higher.
Tests used:
Assay in all cases: DTP human tumour cell line panel, 48 h
[1] = test system: Malme-3M
[2] = test system: COLO 205
[3] = test system: SK-OV-3
[4] = test system: NCI-H226
[5] = test system: MOLT-4
[6] = test system: HCC 2998
[7] = test system: SK-MEL-2
[8] = test system: KM-20L2
[9] = test system: SW-620
[10] = test system: UACC-257
[11] = test system: UO-31
[12] = test system: HOP-62
[13] = test system: MCF7
[14] = test system: SF-539
[15] = test system: OVCAR-4
[16] = test system: HL-60
[17] = test system: UACC-62
[18] = test system: HT-29
[19] = test system: NCI/ADR-RES
[20] = test system: NCI-H522

SMILES	GI50 [1]	GI50 [2]	GI50 [3]	GI50 [4]	GI50 [5]	GI50 [6]	GI50 [7]	GI50 [8]	GI50 [9]	GI50 [10]	GI50 [11]	GI50 [12]	GI50 [13]	GI50 [14]	GI50 [15]	GI50 [16]	GI50 [17]	GI50 [18]	GI50 [19]	GI50 [20]
CN(C)CCNC(=O)c1cccc2nc(-c3ccccc3)oc12	23.9 µM (inactive)	17.3 µM (inactive)	34.4 µM (inactive)	29.1 µM (inactive)	10.9 µM (inactive)	54.5 µM (inactive)	> 62.5 µM (inactive)	28.8 µM (inactive)	39.2 µM (inactive)	36.3 µM (inactive)	17.4 µM (inactive)	> 66.7 µM (inactive)	14.7 µM (inactive)	49.9 µM (inactive)	26.5 µM (inactive)	8.18 µM (inactive)	31.5 µM (inactive)	31 µM (inactive)	42.9 µM (inactive)	–
COc1ccc(C(=O)Cc2cc(OC)ccc2OC)cc1	> 100 µM (inactive)	> 100 µM (inactive)	> 100 µM (inactive)	> 100 µM (inactive)	> 100 µM (inactive)	> 100 µM (inactive)	> 100 µM (inactive)	> 100 µM (inactive)	> 100 µM (inactive)	> 100 µM (inactive)	> 100 µM (inactive)	66.1 µM (inactive)	–	> 100 µM (inactive)	> 100 µM (inactive)	> 100 µM (inactive)	> 100 µM (inactive)	> 100 µM (inactive)	–	43.3 µM (inactive)
O=C(O)C12CC3CC(C1)C2C=C3P(=O)(O)O (configuration not stated)	> 100 µM (inactive)	> 100 µM (inactive)	> 100 µM (inactive)	> 100 µM (inactive)	> 100 µM (inactive)	> 100 µM (inactive)	> 100 µM (inactive)	> 100 µM (inactive)	> 100 µM (inactive)	> 100 µM (inactive)	> 100 µM (inactive)	> 100 µM (inactive)	–	–	> 100 µM (inactive)	> 100 µM (inactive)	> 100 µM (inactive)	> 100 µM (inactive)	–	> 100 µM (inactive)
CC1(C)CC2(CC(C)(C)N1O)NC(=O)OC2=O	> 100 µM (inactive)	> 100 µM (inactive)	> 100 µM (inactive)	> 100 µM (inactive)	> 100 µM (inactive)	> 100 µM (inactive)	> 100 µM (inactive)	> 100 µM (inactive)	> 100 µM (inactive)	> 100 µM (inactive)	> 100 µM (inactive)	> 100 µM (inactive)	> 100 µM (inactive)	> 100 µM (inactive)	> 100 µM (inactive)	> 100 µM (inactive)	> 100 µM (inactive)	> 100 µM (inactive)	> 100 µM (inactive)	> 100 µM (inactive)
CN1CN(C(=O)N2CN(C)C(=O)N(C)C2)CN(C)C1=O	> 100 µM (inactive)	> 100 µM (inactive)	> 100 µM (inactive)	> 100 µM (inactive)	> 100 µM (inactive)	> 100 µM (inactive)	> 100 µM (inactive)	> 100 µM (inactive)	> 100 µM (inactive)	> 100 µM (inactive)	> 100 µM (inactive)	> 100 µM (inactive)	–	> 100 µM (inactive)	–	> 100 µM (inactive)	> 100 µM (inactive)	> 100 µM (inactive)	–	> 100 µM (inactive)
O=C(/N=N/c1cc(Cl)ccc1Cl)NNc1cc(Cl)ccc1Cl	23.1 µM (inactive)	21.8 µM (inactive)	30.3 µM (inactive)	> 10 µM (inactive)	> 10 µM (inactive)	25.9 µM (inactive)	20 µM (inactive)	–	–	–	11.7 µM (inactive)	17.3 µM (inactive)	18.4 µM (inactive)	–	–	4.41 µM (inactive)	11.2 µM (inactive)	17.5 µM (inactive)	22 µM (inactive)	13.2 µM (inactive)
CC(=O)OC1CC2(O)C(CCC3(C)C(c4ccc(=O)oc4)CCC32O)C2(C)CCC(O)C=C12 (configuration not stated)	–	0.0385 µM (active)	0.0336 µM (active)	0.048 µM (active)	0.00182 µM (active)	0.0644 µM (active)	0.0177 µM (active)	0.0219 µM (active)	0.0375 µM (active)	0.0242 µM (active)	0.0297 µM (active)	0.0375 µM (active)	0.0375 µM (active)	0.00775 µM (active)	0.0206 µM (active)	0.00455 µM (active)	0.024 µM (active)	0.0239 µM (active)	0.0125 µM (active)	0.00174 µM (active)
CC(=O)OC1CC[C@@]2(C)C(=CC[C@@H]3[C@@H]2CC[C@]2(C)Nc4nn(S(C)(=O)=O)cc4C[C@@H]32)C1 (some centres not stated)	27.3 µM (inactive)	35.7 µM (inactive)	> 100 µM (inactive)	27.7 µM (inactive)	16.1 µM (inactive)	30.4 µM (inactive)	22.3 µM (inactive)	–	–	–	37 µM (inactive)	43.9 µM (inactive)	16.6 µM (inactive)	–	–	> 10 µM (inactive)	21.8 µM (inactive)	11.6 µM (inactive)	29.9 µM (inactive)	35.2 µM (inactive)
CCOC(=O)C1=NN(c2ccccc2)C2=CC(C)=NN(C)C(=S)N21	–	> 100 µM (inactive)	> 100 µM (inactive)	–	> 100 µM (inactive)	> 100 µM (inactive)	> 100 µM (inactive)	–	> 100 µM (inactive)	> 100 µM (inactive)	> 100 µM (inactive)	–	> 100 µM (inactive)	> 100 µM (inactive)	> 100 µM (inactive)	> 100 µM (inactive)	> 100 µM (inactive)	> 100 µM (inactive)	> 100 µM (inactive)	> 100 µM (inactive)
CCP(=S)(CC)CCl	–	> 100 µM (inactive)	> 100 µM (inactive)	> 100 µM (inactive)	> 10 µM (inactive)	> 100 µM (inactive)	> 100 µM (inactive)	–	> 100 µM (inactive)	> 100 µM (inactive)	> 100 µM (inactive)	> 100 µM (inactive)	> 100 µM (inactive)	–	> 100 µM (inactive)	> 100 µM (inactive)	–	> 100 µM (inactive)	> 100 µM (inactive)	> 100 µM (inactive)

Source: ChEMBL document CHEMBL1201862, “PubChem BioAssay data set” (2004)
